Source: patent US12358890B2, “Substituted tetrahydroisoquinoline derivative as a D1 positive allosteric modulator” (UCB Biopharma SRL, priority 2019, dated 2025)

Key:
[1] = target: T1, human GABAA (α1β2γ2) channels (Homo sapiens, UniProt P14867+P18507+P47870); experiment: Automated patch clamp studies on the GABAA receptor (IonFlux HT, CHO-K1 cells); type: cell-based; details: compound at 10 μM, GABA 15 μM as agonist, read-out: percentage of inhibition of the GABAA receptor
T1 construct: expressed in transfected cells; host or cells: CHO-K1 cells

dopamine D1 receptor = target: T2, dopamine D1 receptor (Homo sapiens, UniProt P21728); experiment: cAMP HTRF potentiation assay (in the presence of EC20 dopamine); type: cell-based; details: for EC50: potentiation of cAMP levels with EC20 dopamine (1.1 nM), LMtk (Ltk-) mouse fibroblast cells expressing the dopamine D1 receptor; for Emax: with EC20 dopamine, dopamine maximum = 100%, read-out: Erel (relative efficacy, maximal % potentiation relative to dopamine maximal response)
T2 construct: host or cells: LMtk (Ltk-) mouse fibroblast cells
Excerpt: Assays have been designed to measure the effects of compounds in accordance with the present invention in the absence of dopamine (“activation assay”) and in the presence of dopamine (“potentiation assay”).
The potentiation assay measures the ability of compounds to increase the levels of cAMP produced by a low-threshold concentration of dopamine. The concentration of dopamine used ([EC20]) is designed to produce 20% stimulation compared to the maximal response (100%) seen with increasing the concentration of dopamine. To measure this potentiation increasing concentrations of the compound with the [EC20] of dopamine are incubated and the potentiation is measured as increases in cAMP production and concentration of compound which produces 50% of the potentiation of the cAMP levels is measured.
• a. METHODS D1 Cell Culture Cells were cultured at 37° C. in a humidified atmosphere of 5% CO2. Cells were grown in DMEM-F12+GlutaMAX™-I medium (GIBCO®, Invitrogen, Merelbeke, Belgium) containing 10% fetal bovine serum (BioWhittaker®, Lonza, Verviers, Belgium), 400 μg/mL Geneticin (GIBCO®), 100 IU/mL Penicillin and 100 IU/mL Streptomycin (Pen-Strep solution, BioWhittaker®). […] Using homogenous time-resolved fluoresence technology, the assay is based on competition between native cAMP produced by cells and cAMP labelled with the dye d2. The tracer binding is determined by an anti-cAMP antibody labeled with cryptate. The effects of the compound alone (agonism) was determined by performing the assay in the absence of dopamine, whilst the effect of the compound as a positive allosteric modulator (PAM) was determined in the presence of an EC20 concentration of dopamine. Cells (20,000 per well) are incubated in 384 plates for 1 hour at room temperature in a final volume of 20 μL HBSS (Lonza, with calcium, magnesium and HEPES buffer 20 mM, pH 7.4) containing: isobutyl methylxanthine (Sigma, 0.1 mM final), varying concentrations of test compound (typically 10^−9.5M to 10^−4.5M) in the presence and absence of dopamine (1.1 nM final). The reaction is then terminated and the cells lysed by adding the d2 detection reagent in lysis buffer (10 microL) and the cryptate reagent in lysis buffer (10 microl) according to manufacturer's instructions. This is then incubated for a further 60 min at room temperature and changes in HTRF fluorescent emission ratio determined according to manufacturer's instructions using an Envision plate reader (Perkin Elmer, Zaventem, Belgium) with laser excitation. All incubations were performed in duplicate and results were compared to a concentration-effect curve to dopamine. (10^−11M to 10^−6M). • c. […]

[2] = Intrinsic clearance in cryopreserved human hepatocyte suspension (Azamulin Assay); type: in vitro ADME
Experimental: The clearance is generally evaluated by using hepatocyte incubations and scaling calculations, assuming the main elimination pathway is metabolism, according to protocols described herein. The intrinsic clearance evaluated from hepatocytes is expressed in μl/min/10^6 cells.
To this aim, cryopreserved human microsomes (pooled donors) are divided on a 48 well collagen coated plate so that the final concentration is 0.25 mg/ml. The UCB compound is then added in the wells at 1 μM and 20 μM concentration in duplicate. After 30 minutes incubation, midazolam is added at 2.5 μM concentration. After 15 minutes, an aliquot is removed and placed into an equal volume of methanol containing internal standard. The samples are centrifuged at 2500 rpm at 4° C. for 20 min. An aliquot of supernatant is diluted with deionised water and levels of 1-hydroxymidazolam is quantified using generic LC MS/MS methods. The concentrations are compared to those obtained after midazolam incubation at the same concentration but without UCB compound pre-incubation. The results are expressed as % of inhibition. […]
Samples are analyzed by LC-MS-MS bioanalytical method to measure the concentration of UCB compound. The concentration versus time profile is fitted to determine the intrinsic clearance (Clint) expressed as μl/min/10^6 cells.

CYP3A4 = target: T3, CYP3A4 (Homo sapiens, UniProt P08684); experiment: In vitro assessment of CYP3A4 inhibition potential using cryopreserved human microsomes (midazolam substrate); type: in vitro ADME; details: cryopreserved human microsomes (pooled donors), probe midazolam 2.5 μM, read-out: percentage of inhibition of CYP3A4
T3 construct: cryopreserved human microsomes (pooled donors) are divided on a 48 well collagen coated plate; from tissue; host or cells: cryopreserved human microsomes (pooled donors)
Experimental: The objective of the human microsome assay is to characterize the inhibition potential of Compound of formula (I) by measuring the CYP3A4 activities after its co-incubation with midazolam, a specific CYP3A4 substrate.
To this aim, cryopreserved human microsomes (pooled donors) are divided on a 48 well collagen coated plate so that the final concentration is 0.25 mg/ml. The UCB compound is then added in the wells at 1 μM and 20 μM concentration in duplicate. After 30 minutes incubation, midazolam is added at 2.5 μM concentration. After 15 minutes, an aliquot is removed and placed into an equal volume of methanol containing internal standard. The samples are centrifuged at 2500 rpm at 4° C. for 20 min. An aliquot of supernatant is diluted with deionised water and levels of 1-hydroxymidazolam is quantified using generic LC MS/MS methods. The concentrations are compared to those obtained after midazolam incubation at the same concentration but without UCB compound pre-incubation. The results are expressed as % of inhibition. […] Azamulin Assay Cryopreserved human hepatocytes (pool of 20 donors, BSU batch from Celsis/IVT/Bioreclamation) were thawed accordingly the provider's information. Viability (trypan blue exclusion) was higher than 75%. […]

T2 sequence (P21728 whole entry, species assumed): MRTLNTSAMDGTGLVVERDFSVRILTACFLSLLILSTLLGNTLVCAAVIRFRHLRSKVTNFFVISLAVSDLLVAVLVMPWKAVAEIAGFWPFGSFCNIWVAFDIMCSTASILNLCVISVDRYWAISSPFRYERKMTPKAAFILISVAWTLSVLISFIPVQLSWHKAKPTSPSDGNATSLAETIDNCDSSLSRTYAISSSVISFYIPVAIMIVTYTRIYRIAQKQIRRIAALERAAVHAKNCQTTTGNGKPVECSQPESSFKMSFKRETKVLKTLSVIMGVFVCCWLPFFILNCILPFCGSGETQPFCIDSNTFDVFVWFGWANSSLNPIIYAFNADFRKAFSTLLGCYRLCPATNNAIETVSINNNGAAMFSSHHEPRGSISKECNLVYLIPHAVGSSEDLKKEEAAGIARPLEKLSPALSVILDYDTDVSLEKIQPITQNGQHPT
T3 sequence (P08684 whole entry): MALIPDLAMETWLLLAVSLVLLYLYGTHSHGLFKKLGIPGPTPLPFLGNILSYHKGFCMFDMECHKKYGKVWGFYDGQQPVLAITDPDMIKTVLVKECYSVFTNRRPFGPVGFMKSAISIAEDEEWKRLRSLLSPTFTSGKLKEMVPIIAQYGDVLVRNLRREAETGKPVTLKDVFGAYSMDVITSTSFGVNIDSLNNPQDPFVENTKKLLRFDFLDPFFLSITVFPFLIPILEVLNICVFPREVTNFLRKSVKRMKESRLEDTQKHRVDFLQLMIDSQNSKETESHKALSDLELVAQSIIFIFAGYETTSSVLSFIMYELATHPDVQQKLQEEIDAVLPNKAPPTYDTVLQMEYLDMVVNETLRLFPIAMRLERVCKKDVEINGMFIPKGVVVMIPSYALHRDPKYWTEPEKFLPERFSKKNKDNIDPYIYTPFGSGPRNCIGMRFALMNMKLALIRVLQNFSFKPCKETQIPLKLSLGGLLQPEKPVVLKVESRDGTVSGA
T1 sequence (P14867 28-456): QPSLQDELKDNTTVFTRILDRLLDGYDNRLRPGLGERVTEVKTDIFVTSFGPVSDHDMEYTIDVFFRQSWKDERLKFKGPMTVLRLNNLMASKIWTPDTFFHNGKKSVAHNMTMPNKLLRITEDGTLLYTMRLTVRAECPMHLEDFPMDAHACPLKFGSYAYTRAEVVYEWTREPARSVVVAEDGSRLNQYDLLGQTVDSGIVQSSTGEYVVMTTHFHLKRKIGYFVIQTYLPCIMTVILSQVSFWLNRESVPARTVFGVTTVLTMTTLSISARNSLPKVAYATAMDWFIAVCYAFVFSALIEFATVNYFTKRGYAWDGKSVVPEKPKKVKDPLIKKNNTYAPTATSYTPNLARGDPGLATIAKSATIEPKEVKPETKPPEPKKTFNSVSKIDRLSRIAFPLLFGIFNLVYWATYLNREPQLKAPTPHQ
T1 sequence (P47870 25-512 limits assumed): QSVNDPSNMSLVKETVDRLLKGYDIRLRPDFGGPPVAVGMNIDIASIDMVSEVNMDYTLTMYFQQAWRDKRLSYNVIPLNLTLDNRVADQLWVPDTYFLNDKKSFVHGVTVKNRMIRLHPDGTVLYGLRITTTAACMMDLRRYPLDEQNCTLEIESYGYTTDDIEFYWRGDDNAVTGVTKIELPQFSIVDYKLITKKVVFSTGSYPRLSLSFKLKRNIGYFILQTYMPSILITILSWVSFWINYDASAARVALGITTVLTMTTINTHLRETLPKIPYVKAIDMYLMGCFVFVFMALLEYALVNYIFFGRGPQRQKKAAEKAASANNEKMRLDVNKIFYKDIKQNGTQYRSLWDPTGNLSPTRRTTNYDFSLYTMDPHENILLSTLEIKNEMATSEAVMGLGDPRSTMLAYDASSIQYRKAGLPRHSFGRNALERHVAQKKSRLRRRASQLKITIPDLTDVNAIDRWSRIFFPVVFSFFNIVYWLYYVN
T1 sequence (P18507 40-475): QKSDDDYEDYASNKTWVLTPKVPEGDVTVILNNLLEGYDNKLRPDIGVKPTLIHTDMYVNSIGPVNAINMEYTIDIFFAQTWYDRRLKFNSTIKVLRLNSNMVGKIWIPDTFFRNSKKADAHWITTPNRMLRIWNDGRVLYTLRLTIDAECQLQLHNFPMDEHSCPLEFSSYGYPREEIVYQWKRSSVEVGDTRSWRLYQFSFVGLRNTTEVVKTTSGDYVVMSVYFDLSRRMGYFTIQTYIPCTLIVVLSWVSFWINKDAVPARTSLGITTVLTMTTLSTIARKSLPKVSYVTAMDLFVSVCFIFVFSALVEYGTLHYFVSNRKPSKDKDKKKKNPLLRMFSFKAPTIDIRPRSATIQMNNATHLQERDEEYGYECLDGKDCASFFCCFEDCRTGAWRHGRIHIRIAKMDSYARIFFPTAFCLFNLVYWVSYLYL

Structure (SMILES)	inhibition at 10 µM [1] [%]	EC50 (dopamine D1 receptor) [nM]	Emax (dopamine D1 receptor) [%]	hepatocyte CLint at 0.5 μM [2] [µL/min/1e6 cells]	inhibition at 15 min, 1 μM (CYP3A4; compound at 1 μM) [%]	inhibition at 15 min, 20 μM (CYP3A4; compound at 20 μM) [%]
CC1c2cccc(C(C)(O)CF)c2CCN1C(=O)Cc1c(Cl)cnc(CO)c1Cl (stereo not shown) [(Ib)]	~20	~200	~61	~9.2	–	–
C[C@H]1c2cccc([C@](C)(O)CF)c2CCN1C(=O)Cc1c(Cl)cnc(CO)c1Cl [compound of formula (Ia), 2-[3,5-dichloro-2-(hydroxymethyl)-4-pyridyl]-1-[(1S)-5-[(1S)-2-fluoro-1-hydroxy-1-methyl-ethyl]-1-methyl-3,4-dihydro-1H-isoquinolin-2-yl]ethanone]	~13	~126	~64	~8.8	~20	~28
